Measured values reported in patent US7064243B2, “Screens and assays for agents useful in controlling parasitic nematodes” (Cambria Biosciences LLC, priority 2001, dated 2006).
“Also recorded” adds a separate entry of the source. Read-outs that look alike come from different tables or passages of the source.

What was measured:
[1] = system: secretion of the VAP-1-Myc fusion protein; test: Secretion assay: immunoblot (anti-Myc) of VAP-1-Myc in conditioned axenic media of worms bearing the vap-1::myc transgene; type: in vivo, C. elegans; conditions: various concentrations, 16 hours, 24 well plates, dose-dependent fashion (FIG. 8)
Protocol: Worms (either animals bearing the vap-1::myc transgene or unc-119 (e2498) mutants rescued with plasmid pPD#MM016B as a negative control) were cultured in S basal medium (recipe below) containing HB101 bacteria as a food source for 4–5 days as described below. The worms were separated from the media by centrifugation and washed several times in S basal media. Worms were then resuspended in 50 ml of axenic media (recipe below) and cultured overnight (˜20 h). A vessel containing only axenic media without worms was maintained under identical conditions as a control. The worm density in both the vap-1::myc and unc-119 cultures was approximately 50,000 per ml. It was estimated that 50–70% of the worms carry the transgene.
After overnight incubation in axenic media, the worms and media were separated by centrifugation (see below for details) and the media were concentrated using Centriprep 30 concentrators (see below for details). […]
To determine the effect of 4,7 phenanthroline on secretion of the VAP-1-Myc fusion protein, worms (either transformation control or bearing the vap-1::myc transgene) were cultured in 24 well plates (in a manner similar to the 96 well scaledown protocol described below) in axenic media in the presence of various concencentrations of 4,7 phenanthroline for 16 hours. […] VAP-1-Myc fusion protein was detected with anti-Myc antibody as described above.

A. caninum L3 larvae = conditions: in vivo; cited from earlier work
ASP-1 release = conditions: hookworm larvae, cited from earlier work

c1cnc2ccc3ncccc3c2c1 [4,7-phenanthroline]
secretion of the VAP-1-Myc fusion protein [1]: inhibited | resumption of larval hookworm development (A. caninum L3 larvae): blocked | release of ASP-1 (ASP-1 release): known inhibitor; also recorded: blocked | release of ASP-1 (ASP-1 release; listed as 4,7 phenanthroline): known inhibitor
